Patent publication US9566312B2, “Cyclic peptides and use as medicines” (priority 2012, dated 2017)
Like-named read-outs stand apart in the source and are kept apart here. Starred links: 1 amine or outer side, 2 acyl side, 3 side chain; linkers in the order of their positions; H or OH if unused. Non-standard residues stand in square brackets, D forms with d. Residues, ends and D or L forms follow the SMILES beside them. X10 = C[C@H](CCCOC(=O)NC1CCN(C)CC1)[C@@H](C(=O)[*:2])N(C)[*:1]; X25 = CCN1CCO[C@H](COC[C@@H](C)[C@@H](C(=O)[*:2])N(C)[*:1])C1; X1 = COC[C@@H]1CN(C[C@H](C)[C@@H](C(=O)[*:2])N(C)[*:1])CCO1; X22 = C[C@H](CN1CCN(C2CCC2)CC1)[C@@H](C(=O)[*:2])N(C)[*:1]; X19 = COCCN1CCN(C[C@H](C)[C@@H](C(=O)[*:2])N(C)[*:1])CC1; NMe(dihydroBmt) = CCCC[C@@H](C)[C@@H](O)[C@H](NC)C(=O)O; X17 = C[C@H](COCC(C)(C)O)[C@@H](C(=O)[*:2])N(C)[*:1]; X20 = C[C@H](CCCN1CCOCC1)[C@@H](C(=O)[*:2])N(C)[*:1]; X9 = C[C@@H](CN1CCOCC1)[C@@H](C(=O)[*:2])N(C)[*:1]; MeBmt = C/C=C/C[C@@H](C)[C@@H](O)[C@H](NC)C(=O)O; X13 = C[C@H](CC#N)[C@@H](C(=O)[*:2])N(C)[*:1]; NMeL = CN[C@@H](CC(C)C)C(=O)O; NMeV = CN[C@H](C(=O)O)C(C)C; dNMeA = CN[C@H](C)C(=O)O; Abu = CC[C@H](N)C(=O)O

Legend:
[1] = biological target: cyclophilin A (CypA) (Homo sapiens (Human), UniProt P62937); assay: Inhibitor binding to cyclophilin proteins by SPR, CypA; parameters: unit not given here; conditions: 1:1 binding model;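 note: Single-cycle kinetics on a Biacore T200, compound injected at several concentrations for 1 min each at 50 µL/min, then 10 min dissociation, in HEPES pH 7.4 buffer with 3% DMSO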
Chain of cyclophilin A (CypA) (P62937 whole entry): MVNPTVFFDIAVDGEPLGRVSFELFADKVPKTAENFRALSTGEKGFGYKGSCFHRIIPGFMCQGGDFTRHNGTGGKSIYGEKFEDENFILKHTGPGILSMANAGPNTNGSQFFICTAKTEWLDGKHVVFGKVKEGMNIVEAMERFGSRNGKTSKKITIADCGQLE

[2] = biological target: cyclophilin B (CypB) (Homo sapiens (Human), UniProt P23284); assay: Inhibitor binding to cyclophilin proteins by SPR, CypB; parameters: unit not given here; conditions: 1:1 binding model
Chain of cyclophilin B (CypB) (P23284 34-216): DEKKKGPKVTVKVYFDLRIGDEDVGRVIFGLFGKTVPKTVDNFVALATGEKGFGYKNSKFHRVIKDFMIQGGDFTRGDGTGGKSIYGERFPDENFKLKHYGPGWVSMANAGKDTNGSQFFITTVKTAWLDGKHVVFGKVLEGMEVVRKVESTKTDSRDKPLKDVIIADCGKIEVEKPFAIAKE
Outline: (§1)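 A 1:1 model fitted to single-cycle kinetic SPR data gave association and dissociation rates and KD. Compound series injected for 1 min each at 50 μL/min, then 10 min dissociation. Running buffer HEPES pH 7.4 with NaCl, P20 and 3% DMSO; target protein was biotinylated avi-tagged cyclophilin on a CAPture surface.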

[3] = biological target: CypF (Homo sapiens (Human), UniProt P30405); assay: Inhibitor binding to cyclophilin proteins by SPR, CypF; conditions: 1:1 binding model
Chain of CypF (P30405 30-207): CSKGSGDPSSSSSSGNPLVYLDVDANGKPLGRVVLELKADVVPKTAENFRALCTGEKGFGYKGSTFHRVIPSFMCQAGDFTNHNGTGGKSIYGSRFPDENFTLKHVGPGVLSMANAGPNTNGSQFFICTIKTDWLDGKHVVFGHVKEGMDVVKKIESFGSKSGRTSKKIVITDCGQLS
Outline: as §1

[4] = test system: genotype 1b subgenomic HCV replicon in Huh7.5 cells; assay type: cell-based, hepatitis C virus; conditions: read-out: RPLN-1b IC50
Outline: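 Huh7.5 cells carrying genotype 1b subgenomic HCV replicon with renilla luciferase-neomycin reporter, in phenol red-free DMEM without G418. Luciferase measured after 72 h compound exposure relative to DMSO-treated cells; cytotoxicity (CC50) by Cell Titer-Glo.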

[5] = test system: peripheral blood mononuclear cells (PBMC); assay: Anti-proliferative or immunosuppressive activity, BrdU incorporation in PHA-stimulated PBMC; assay type: cell-based; conditions: PHA 3 μg/ml, 60 hour compound treatment; read-out: EMV PBMC IC50
Outline: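 Fresh PBMCs from two donors, 30,000 per well in X-VIVO 15 medium, stimulated with 3 μg/ml PHA to drive T-cell proliferation. Proliferation measured as BrdU incorporation into DNA by BrdU ELISA.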

[6] = biological target: organic anion transporting polypeptide 1B1 (OATP1B1) (Homo sapiens (Human), UniProt Q9Y6L6); assay: OATP assay in CHO-OATP1B1 cells;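 note: inhibition of probe substrate uptake into the cells, ten minutes exposure, accumulated substrate read by fluorescence once cells were lysed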
Chain of organic anion transporting polypeptide 1B1 (OATP1B1) (Q9Y6L6 whole entry): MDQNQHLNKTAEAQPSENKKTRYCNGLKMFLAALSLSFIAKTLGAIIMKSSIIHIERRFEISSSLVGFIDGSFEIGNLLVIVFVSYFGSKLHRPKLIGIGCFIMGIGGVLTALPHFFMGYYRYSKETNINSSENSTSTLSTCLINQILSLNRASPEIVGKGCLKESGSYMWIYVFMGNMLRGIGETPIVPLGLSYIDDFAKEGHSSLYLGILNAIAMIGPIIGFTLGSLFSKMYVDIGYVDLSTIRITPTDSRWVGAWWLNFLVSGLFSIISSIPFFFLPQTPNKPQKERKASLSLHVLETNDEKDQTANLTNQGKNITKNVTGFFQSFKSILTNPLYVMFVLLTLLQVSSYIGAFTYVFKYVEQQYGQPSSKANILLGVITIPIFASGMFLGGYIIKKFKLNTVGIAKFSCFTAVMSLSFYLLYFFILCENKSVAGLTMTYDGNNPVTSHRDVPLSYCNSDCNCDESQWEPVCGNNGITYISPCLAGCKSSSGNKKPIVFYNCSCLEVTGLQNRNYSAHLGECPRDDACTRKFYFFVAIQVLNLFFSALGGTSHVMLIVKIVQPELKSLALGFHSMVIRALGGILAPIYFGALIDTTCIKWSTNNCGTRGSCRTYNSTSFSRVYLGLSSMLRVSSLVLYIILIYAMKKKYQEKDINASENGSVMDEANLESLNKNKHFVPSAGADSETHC
Method: In order to determine whether the compounds of the present invention interact with hepatic transporters, experiments were carried out that compared the concentration-dependent inhibition toward the organic anion transporting polypeptide 1B1 (OATP1B1) and the multidrug resistance associated protein 2 (MRP2).
The cells were cultured in DMEM/F12 +10% FBS+2 mM Ala-Gln+1% Pen-Strep for a period of two days, and the media was changed one day post-seeding. Prior to the assay, media was aspirated and were washed −3× with HBSS+10 mM HEPES and the solution was equilibrated for 15 min in HBSS+10 mM HEPES. Solutions containing the inhibitor were prepared in HBSS+10 mM HEPES (up to 1% DMSO). […] After 10 min, the substrate or substrate/inhibitor solution was aspirated and the cells were washed 3× with HBSS+10 mM HEPES. The amount of the transported probe substrate was determined by fluorescent photometry after cell lysis, and the IC50 was derived from the concentration-response curve.

[7] = biological target: CYP3A4 (Homo sapiens (Human), UniProt P08684); assay: Time-dependent inhibition of CYP3A4; conditions: for NIM TDI kinact/Ki: probe substrate midazolam;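 for all read-outs here: Two-step in vitro assay, kobs derived from residual CYP3A4 activity versus preincubation time per concentration, then kinact and KI by nonlinear fit of kobs against concentration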
Chain of CYP3A4 (P08684 whole entry): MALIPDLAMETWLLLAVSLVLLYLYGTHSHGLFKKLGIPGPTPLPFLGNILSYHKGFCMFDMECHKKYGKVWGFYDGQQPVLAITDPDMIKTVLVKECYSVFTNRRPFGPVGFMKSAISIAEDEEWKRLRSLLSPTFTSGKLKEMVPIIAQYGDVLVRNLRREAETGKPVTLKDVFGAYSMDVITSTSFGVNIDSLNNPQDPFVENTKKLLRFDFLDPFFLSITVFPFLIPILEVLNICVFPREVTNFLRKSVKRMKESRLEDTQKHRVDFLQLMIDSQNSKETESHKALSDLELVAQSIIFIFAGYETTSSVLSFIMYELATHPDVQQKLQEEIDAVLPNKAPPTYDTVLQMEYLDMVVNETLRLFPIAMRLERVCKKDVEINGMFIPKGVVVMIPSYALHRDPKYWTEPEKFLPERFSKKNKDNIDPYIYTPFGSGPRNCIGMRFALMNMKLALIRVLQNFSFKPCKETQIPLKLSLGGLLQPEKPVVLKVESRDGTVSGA
Method: Method 5: Measuring Time-Dependent Inhibition of CYP3A4
The CYP3A4 time dependent inhibition potential of various inhibitors was determined by a two step in vitro assay. […] The inactivation rate constant (kobs) was obtained by plotting the activity remaining over pre-incubation time for each concentration of compound. The maximal inactivation rate (kinact) and the inactivation potency (KI) were calculated by non linear regression analysis of the inactivation rate constant (kobs) versus compound concentrations [I] curve according to the equation kobs=[kinact·[I]]/[KI+[I]]

[8] = genotype 1b replicon, 72 h incubation

C/C=C/C[C@@H](C)[C@@H](O)[C@H]1C(=O)N[C@@H](CC)C(=O)N(C)[C@H](C)C(=O)N(C)[C@@H]([C@H](C)CC#N)C(=O)N[C@@H](C(C)C)C(=O)N(C)[C@@H](CC(C)C)C(=O)N[C@@H](C)C(=O)N[C@H](C)C(=O)N(C)[C@@H](CC(C)C)C(=O)N(C)[C@@H](CC(C)C)C(=O)N(C)[C@@H](C(C)C)C(=O)N1C [Compound 2.10, 3-[D-Ala]-4-[(2S,3R)-4-cyano-3-methyl-2-(methylamino)butanoyl]-cyclosporin] (cyclo(A[dA][NMeL][NMeL][NMeV][MeBmt][Abu][dNMeA][X13]V[NMeL]))
CypA Kd [1]: 1.2
CypB Kd [2]: 0.5
CypF Kd [3]: 0.5 nM
IC50 [4, 8]: 27 nM
IC50 [5]: 12900 nM
IC50 [6]: 900 nM
Ki [7]: > 50000 nM

CCCC[C@@H](C)[C@@H](O)[C@H]1C(=O)N[C@@H](CC)C(=O)N(C)[C@H](C)C(=O)N(C)[C@@H]([C@@H](C)CN2CCOCC2)C(=O)N[C@@H](C(C)C)C(=O)N(C)[C@@H](CC(C)C)C(=O)N[C@@H](C)C(=O)N[C@H](C)C(=O)N(C)[C@@H](CC(C)C)C(=O)N(C)[C@@H](CC(C)C)C(=O)N(C)[C@@H](C(C)C)C(=O)N1C [Compound 2.17.7, 1-dihydro-3-[D-Ala]-4[(2S,3S)-2-Amino-3-methyl-4-morpholin-4-yl-butanoyl]-cyclosporin] (cyclo(A[dA][NMeL][NMeL][NMeV][NMe(dihydroBmt)][Abu][dNMeA][X9]V[NMeL]))
CypA Kd [1]: 1.5
CypB Kd [2]: 0.7
CypF Kd [3]: 0.7 nM
IC50 [4, 8]: 15 nM
Ki [7]: > 50000 nM

C/C=C/C[C@@H](C)[C@@H](O)[C@H]1C(=O)N[C@@H](CC)C(=O)N(C)[C@H](C)C(=O)N(C)[C@@H]([C@@H](C)CN2CCN(CCOC)CC2)C(=O)N[C@@H](C(C)C)C(=O)N(C)[C@@H](CC(C)C)C(=O)N[C@@H](C)C(=O)N[C@H](C)C(=O)N(C)[C@@H](CC(C)C)C(=O)N(C)[C@@H](CC(C)C)C(=O)N(C)[C@@H](C(C)C)C(=O)N1C [Compound 2.17.4, 3-[D-Ala]-4[(2S,3S)-2-Amino-4-[4-(2-methoxy-ethyl)-piperazin-1-yl]-3-methyl-butanoyl]-cyclosporin] (cyclo(A[dA][NMeL][NMeL][NMeV][MeBmt][Abu][dNMeA][X19]V[NMeL]))
CypA Kd [1]: 0.6
CypB Kd [2]: 0.5
CypF Kd [3]: 0.3 nM
IC50 [4, 8]: 31 nM
IC50 [5]: 2700 nM
IC50 [6]: 3200 nM
Ki [7]: > 50000 nM

C/C=C/C[C@@H](C)[C@@H](O)[C@H]1C(=O)N[C@@H](CC)C(=O)N(C)[C@H](C)C(=O)N(C)[C@@H]([C@H](C)CCCN2CCOCC2)C(=O)N[C@@H](C(C)C)C(=O)N(C)[C@@H](CC(C)C)C(=O)N[C@@H](C)C(=O)N[C@H](C)C(=O)N(C)[C@@H](CC(C)C)C(=O)N(C)[C@@H](CC(C)C)C(=O)N(C)[C@@H](C(C)C)C(=O)N1C [Compound 2.19.1, 3-[D-Ala]-4-[(2S,3R)-3-methyl-2-(methylamino)-6-morpholinohexanoyl]-cyclosporin] (cyclo([MeBmt][Abu][dNMeA][X20]V[NMeL]A[dA][NMeL][NMeL][NMeV]))
CypA Kd [1]: 0.9
CypB Kd [2]: 0.5
CypF Kd [3]: 0.5 nM
IC50 [4]: 38 nM
IC50 [5]: 16600 nM
IC50 [6]: 6900 nM
NIM TDI kinact/Ki [7]: 17 M⁻¹ s⁻¹

C/C=C/C[C@@H](C)[C@@H](O)[C@H]1C(=O)N[C@@H](CC)C(=O)N(C)[C@H](C)C(=O)N(C)[C@@H]([C@@H](C)CN2CCO[C@H](COC)C2)C(=O)N[C@@H](C(C)C)C(=O)N(C)[C@@H](CC(C)C)C(=O)N[C@@H](C)C(=O)N[C@H](C)C(=O)N(C)[C@@H](CC(C)C)C(=O)N(C)[C@@H](CC(C)C)C(=O)N(C)[C@@H](C(C)C)C(=O)N1C [Compound 2.17.8, 3-[D-Ala]-4[(2S,3S)-2-Amino-4-((S)-2-methoxymethyl-morpholin-4-yl)-3-methyl-butanoyl]-cyclosporin] (cyclo(A[dA][NMeL][NMeL][NMeV][MeBmt][Abu][dNMeA][X1]V[NMeL]))
CypA Kd [1]: 1.2
CypB Kd [2]: 0.7
CypF Kd [3]: 0.6 nM
IC50 [4, 8]: 22 nM
IC50 [5]: 36400 nM
Ki [7]: > 50000 nM

C/C=C/C[C@@H](C)[C@@H](O)[C@H]1C(=O)N[C@@H](CC)C(=O)N(C)[C@H](C)C(=O)N(C)[C@@H]([C@H](C)COC[C@@H]2CN(CC)CCO2)C(=O)N[C@@H](C(C)C)C(=O)N(C)[C@@H](CC(C)C)C(=O)N[C@@H](C)C(=O)N[C@H](C)C(=O)N(C)[C@@H](CC(C)C)C(=O)N(C)[C@@H](CC(C)C)C(=O)N(C)[C@@H](C(C)C)C(=O)N1C [Compound 2.20.1, 3-[D-Ala]-4-[(2S,3S)-4-(((S)-4-ethylmorpholin-2-yl)methoxy)-3-methyl-2-(methylamino)butanoyl]-cyclosporin] (cyclo(A[dA][NMeL][NMeL][NMeV][MeBmt][Abu][dNMeA][X25]V[NMeL]))
CypA Kd [1]: 0.7
CypB Kd [2]: 0.7
CypF Kd [3]: 0.5 nM
IC50 [6]: 1900 nM
NIM TDI kinact/Ki [7]: 6.7 M⁻¹ s⁻¹

C/C=C/C[C@@H](C)[C@@H](O)[C@H]1C(=O)N[C@@H](CC)C(=O)N(C)[C@H](C)C(=O)N(C)[C@@H]([C@H](C)CCCOC(=O)NC2CCN(C)CC2)C(=O)N[C@@H](C(C)C)C(=O)N(C)[C@@H](CC(C)C)C(=O)N[C@@H](C)C(=O)N[C@H](C)C(=O)N(C)[C@@H](CC(C)C)C(=O)N(C)[C@@H](CC(C)C)C(=O)N(C)[C@@H](C(C)C)C(=O)N1C [Compound 2.19.8, 3-[D-Ala]-4-[(2S,3R)-3-methyl-2-(methylamino)-6-(((1-methylpiperidin-4-yl)carbamoyl)oxy)hexanoyl]-cyclosporin] (cyclo(A[dA][NMeL][NMeL][NMeV][MeBmt][Abu][dNMeA][X10]V[NMeL]))
CypA Kd [1]: 0.8
CypB Kd [2]: 0.4
CypF Kd [3]: 0.4 nM
IC50 [6]: 7800 nM
Ki [7]: > 50000 nM

CCCC[C@@H](C)[C@@H](O)[C@H]1C(=O)N[C@@H](CC)C(=O)N(C)[C@H](C)C(=O)N(C)[C@@H]([C@H](C)CN2CCN(C3CCC3)CC2)C(=O)N[C@@H](C(C)C)C(=O)N(C)[C@@H](CC(C)C)C(=O)N[C@@H](C)C(=O)N[C@H](C)C(=O)N(C)[C@@H](CC(C)C)C(=O)N(C)[C@@H](CC(C)C)C(=O)N(C)[C@@H](C(C)C)C(=O)N1C [Compound 2.5.15, 1-dihydro-3-[D-Ala]-4[(2S,3R)-2-Amino-4-(4-cyclobutyl-piperazin-1-yl)-butanoyl]-cyclosporin] (cyclo([NMe(dihydroBmt)][Abu][dNMeA][X22]V[NMeL]A[dA][NMeL][NMeL][NMeV]))
CypA Kd [1]: 1.4
CypB Kd [2]: 0.7
CypF Kd [3]: 0.6 nM
IC50 [4]: 18 nM
IC50 [5]: 7600 nM
KI (inactivation) [7]: > 50000 nM

C/C=C/C[C@@H](C)[C@@H](O)[C@H]1C(=O)N[C@@H](CC)C(=O)N(C)[C@H](C)C(=O)N(C)[C@@H]([C@H](C)CCN2CCOCC2)C(=O)N[C@@H](C(C)C)C(=O)N(C)[C@@H](CC(C)C)C(=O)N[C@@H](C)C(=O)N[C@H](C)C(=O)N(C)[C@@H](CC(C)C)C(=O)N(C)[C@@H](CC(C)C)C(=O)N(C)[C@@H](C(C)C)C(=O)N1C (stereo in doubt) [Compound 2.18.1, 3-[D-Ala]-4-[(2S,3R)-3-methyl-2-(methylamino)-5-morpholinopentanoyl]-cyclosporin]
CypA Kd [1]: 1.5
CypB Kd [2]: 0.8
CypF Kd [3]: 0.9 nM
IC50 [4, 8]: 22 nM
IC50 [5]: 16200 nM
Ki [7]: > 50000 nM

C/C=C/C[C@@H](C)[C@@H](O)[C@H]1C(=O)N[C@@H](CC)C(=O)N(C)[C@H](CCCN2CCOCC2)C(=O)N(C)[C@@H]([C@H](C)CS(C)(=O)=O)C(=O)N[C@@H](C(C)C)C(=O)N(C)[C@@H](CC(C)C)C(=O)N[C@@H](C)C(=O)N[C@H](C)C(=O)N(C)[C@@H](CC(C)C)C(=O)N(C)[C@@H](CC(C)C)C(=O)N(C)[C@@H](C(C)C)C(=O)N1C (stereo in doubt) [Compound 3.4.2, 3-[(R)-2-(methylamino)-5-morpholinopentanoyl]-4-[(2S,3S)-3-methyl-2-(methylamino)-4-(methylsulfonyl)butanoyl]-cyclosporin]
CypA Kd [1]: 8.7
CypB Kd [2]: 4.4
CypF Kd [3]: 5 nM
IC50 [4, 8]: 1300 nM
IC50 [5]: 13800 nM
Ki [7]: > 50000 nM

C/C=C/C[C@@H](C)[C@@H](O)[C@H]1C(=O)N[C@@H](CC)C(=O)N(C)[C@H](C)C(=O)N(C)[C@@H]([C@H](C)COCC(C)(C)O)C(=O)N[C@@H](C(C)C)C(=O)N(C)[C@@H](CC(C)C)C(=O)N[C@@H](C)C(=O)N[C@H](C)C(=O)N(C)[C@@H](CC(C)C)C(=O)N(C)[C@@H](CC(C)C)C(=O)N(C)[C@@H](C(C)C)C(=O)N1C [Compound 2.7, 3-[D-Ala]-4-[(2S,3S)-4-(2-hydroxy-2-methylpropoxy)-3-methyl-2-(methylamino)butanoyl]-cyclosporin] (cyclo(A[dA][NMeL][NMeL][NMeV][MeBmt][Abu][dNMeA][X17]V[NMeL]))
CypA Kd [1]: 2.5
CypB Kd [2]: 1.2
CypF Kd [3]: 0.9 nM
IC50 [6]: 1800 nM
NIM TDI kinact/Ki [7]: 25 M⁻¹ s⁻¹
